# Experimental data from patent publication US20230097700A1, “AZETIDINE SULFONAMIDE COMPOUND” (DAIICHI SANKYO COMPANY, LIMITED, priority 2019, published 2023).
# Where a name gives a salt, the structure may show the parent alone.
# Tested on: activated T cells (CD4+ T cells derived from the mouse spleen)
# Test: Incorporation of 3H-thymidine into activated T cells
# Assay type: cell-based, mouse (C57BL/6J)
# Conditions: 3H-thymidine incorporation, mouse spleen CD4+ T cells activated with Dynabeads Mouse T-Activator CD3/CD28
# Experimental: Effect of a test substance on incorporation of ^3H-thymidine was evaluated using T cells derived from the mouse spleen. The spleen was excised out from a C57BL/6J mouse euthanized, cut into pieces, ground on a cell strainer (40 μm mesh) and centrifuged to collect spleen cells. CD4+ T cells were isolated from the spleen cells by use of EasySep Mouse CD4+ T cell isolation kit (STEMCELL Technologies). CD4+ T cells were seeded to a 96-well round-bottom plate. Test substance dissolved in DMSO (dimethyl sulfoxide) or vehicle (DMSO) was added to culture medium and Dynabeads Mouse T-Activator CD3/CD28 (Thermo Fisher Scientific Inc.) was added. Culture was carried out at 37° C. in 5% CO2. After culture was carried out for 24 hours, ^3H-thymidine (PerkinElmer) diluted with the culture medium was added to individual wells. Culture was further carried out overnight at 37° C. in 5% CO2. In order to measure ^3H-thymidine incorporated in nuclei of the cells, the cells were collected on a filter plate UniFilter-96 GF/B (PerkinElmer) by use of a FilterMate Universal Harvester (PerkinElmer). After the filter plate was placed in a dryer and allowed to stand still for 2 hours or more, scintillation cocktail MicroScint-O (PerkinElmer) was added and radioactivity was measured by TopCount NXT (PerkinElmer). With the radioactivity of a group not containing a test substance being specified as 100% and the radioactivity of a group not activated being specified as 0%, relative radioactivity values of individual wells to which the test substance was added (proliferation rate, % of vehicle) were calculated. The values of “% of vehicle” were entered in analysis software Prism (Version 4.03, GraphPad Software). “Nonlinear regression Log (inhibitor) vs reaction variable tilt” was selected and sigmoid type-fitting (Bottom=0, Top=100) was carried out to calculate 50% inhibition concentration (IC50). The compound of the present invention suppresses ^3H-thymidine incorporation in activated T cells.
row,SMILES,IC50 [nM]
1,"N[C@@H](Cc1cccc(S(=O)(=O)N2CC(Oc3ccc(-c4ccccc4)cc3)(c3ccccc3)C2)c1)C(=O)O [Example 2, (2S)-2-Amino-3-(3-{3-[([1,1′-biphenyl]-4-yl)oxy]-3-phenylazetidin-1-sulfonyl}phenyl)propanoic acid]",12
2,"N[C@@H](Cc1cccc(S(=O)(=O)N2CC(Oc3cccc(-c4ccccc4)c3)(c3ccccc3)C2)c1)C(=O)O [Example 3, (2S)-2-Amino-3-(3-{3-[([1,1′-biphenyl]-3-yl)oxy]-3-phenylazetidin-1-sulfonyl)phenyl)propanoic acid]",35
3,"CC(=O)c1ccc(OC2(c3ccc(F)cc3)CN(S(=O)(=O)c3cccc(C[C@H](N)C(=O)O)c3)C2)cc1F [Example 4, (2S)-3-{3-[3-(4-Acetyl-3-fluorophenoxy)-3-(4-fluorophenyl)azetidine-1-sulfonyl]phenyl}-2-aminopropanoic acid monohydrochloride]",12
4,"CC(=O)c1cc(OC2(c3ccc(F)cc3)CN(S(=O)(=O)c3cccc(C[C@H](N)C(=O)O)c3)C2)ccc1F [Example 5, (2S)-3-{3-[3-(3-Acetyl-4-fluorophenoxy)-3-(4-fluorophenyl)azetidine-1-sulfonyl]phenyl}-2-aminopropanoic acid monohydrochloride]",30
5,"N[C@@H](Cc1cccc(S(=O)(=O)N2CC(Oc3ccc4nccnc4c3)(c3ccccc3)C2)c1)C(=O)O [Example 6, (2S)-2-Amino-3-(3-{3-phenyl-3-[(quinoxalin-6-yl)oxy]azetidin-1-sulfonyl}phenyl)propanoic acid monohydrochloride]",6.6
6,"N[C@@H](Cc1cccc(S(=O)(=O)N2CC(Oc3ccc4c(c3)OCCO4)(c3ccccc3)C2)c1)C(=O)O [Example 7, (2S)-2-Amino-3-(3-{3-[(2,3-dihydro-1,4-benzodioxin-6-yl)oxy]-3-phenylazetidin-1-sulfonyl}phenyl)propanoic acid monohydrochloride]",16
7,"N[C@@H](Cc1cccc(S(=O)(=O)N2CC(Oc3ccc4c(c3)CCNC4=O)(c3ccc(F)cc3)C2)c1)C(=O)O [Example 8, (2S)-2-Amino-3-(3-{3-(4-fluorophenyl)-3-[(1-oxo-1,2,3,4-tetrahydroisoquinolin-6-yl)oxy]azetidin-1-sulfonyl}phenyl)propanoic acid monohydrochloride]",13
8,"CC(=O)c1ccc(OC2(c3ccc(Cl)cc3)CN(S(=O)(=O)c3cccc(C[C@H](N)C(=O)O)c3)C2)cc1 [Example 9, (2S)-3-{3-[3-(4-Acetylphenoxy)-3-(4-chlorophenyl)azetidin-1yl]sulfonylphenyl}-2-aminopropanoic acid monohydrochloride]",7.6
9,"N[C@@H](Cc1cccc(S(=O)(=O)N2CC(Oc3ccc4cn[nH]c4c3)(c3ccccc3)C2)c1)C(=O)O [Example 10, (2S)-2-Amino-3-(3-{3-[(1H-indazol-6-yl)oxy]-3-phenylazetidine-1-sulfonyl}phenyl)propanoic acid monohydrochloride]",10
10,"CC(C)NC(=O)c1ccc(OC2(c3ccccc3)CN(S(=O)(=O)c3cccc(C[C@H](N)C(=O)O)c3)C2)cc1 [Example 11, (2S)-2-Amino-3-[3-(3-phenyl-3-{4-[(propan-2-yl)carbamoyl]phenoxy}azetidin-1-sulfonyl)phenyl]propanoic acid monoformate]",26
11,"N[C@@H](Cc1cccc(S(=O)(=O)N2CC(Oc3ccc(OC(F)F)cc3)(c3ccccc3)C2)c1)C(=O)O [Example 12, (2S)-2-Amino-3-(3-{3-[4-(difluoromethoxy)phenoxy]-3-phenylazetidin-1-sulfonyl}phenyl)propanoic acid monoformate]",21
12,"Cc1ccc(C2(Oc3ccc(C#N)cc3)CN(S(=O)(=O)c3cccc(C[C@H](N)C(=O)O)c3)C2)cc1 [Example 13, (2S)-2-Amino-3-{3-[3-(4-cyanophenoxy)-3-(4-methylphenyl)azetidine-1-sulfonyl]phenyl}propanoic acid monoformate]",9.1
13,"CC(=O)c1ccc(OC2(c3ccc(C)cc3)CN(S(=O)(=O)c3cccc(C[C@H](N)C(=O)O)c3)C2)cc1 [Example 14, (2S)-3-{3-[3-(4-Acetylphenoxy)-3-(4-methylphenyl)azetidine-1-sulfonyl]phenyl}-2-aminopropanoic acid monoformate]",7.7
14,"N[C@@H](Cc1cccc(S(=O)(=O)N2CC(Oc3cccc(F)c3)(c3ccc(F)cc3)C2)c1)C(=O)O [Example 15, (2S)-Amino-3-(3-{[3-(3-fluorophenoxy)-3-(4-fluorophenyl)azetidin-1-yl]sulfonyl}phenyl)propanoic acid]",14
15,"Cc1ccc(OC2(c3ccccc3)CN(S(=O)(=O)c3cccc(C[C@H](N)C(=O)O)c3)C2)cc1 [Example 16, (2S)-Amino-3-(3-{[3-phenyl-3-(p-tolyloxy)azetidin-1-yl]sulfonyl)phenyl)propanoic acid]",10
16,"N[C@@H](Cc1cccc(S(=O)(=O)N2CC(Oc3ccc(F)c(Cl)c3)(c3ccccc3)C2)c1)C(=O)O [Example 17, (2S)-Amino-3-(3-{[3-(3-chloro-4-fluorophenoxy)-3-phenylazetidin-1-yl]sulfonyl}phenyl)propanoic acid]",23
17,"N#Cc1ccc(OC2(c3ccccc3)CN(S(=O)(=O)c3cccc(C[C@H](N)C(=O)O)c3)C2)cc1 [Example 18, (2S)-Amino-3-(3-{[3-(4-cyanophenoxy)-3-phenylazetidin-1-yl]sulfonyl}phenyl)propanoic acid]",14
18,"CCC(=O)c1ccc(OC2(c3ccc(F)cc3)CN(S(=O)(=O)c3cccc(C[C@H](N)C(=O)O)c3)C2)cc1 [Example 19, (2S)-2-Amino-3-{3-[3-(4-fluorophenyl)-3-(4-propanoylphenoxy)azetidin-1-yl]sulfonylphenyl}propanoic acid monotrifluoroacetate]",30
19,"NC(=O)c1ccc(OC2(c3ccccc3)CN(S(=O)(=O)c3cccc(C[C@H](N)C(=O)O)c3)C2)cc1 [Example 20, (2S)-2-Amino-3-{3-[3-(4-carbamoylphenoxy)-3-phenylazetidine-1-sulfonyl]phenyl}propanoic acid monoformate]",8.8
20,"CN(C)c1ccc(OC2(c3ccc(F)cc3)CN(S(=O)(=O)c3cccc(C[C@H](N)C(=O)O)c3)C2)cc1 [Example 21, (2S)-2-Amino-3-{3-[4-(dimethylamino)phenoxy]-3-(4-fluorophenyl)azetidin-1-yl]sulfonylphenyl}propanoic acid monohydrochloride]",3.7
21,"NC(=O)c1ccc(OC2(c3ccc(F)cc3)CN(S(=O)(=O)c3cccc(C[C@H](N)C(=O)O)c3)C2)cc1 [Example 22, (2S)-2-Amino-3-{3-[3-(4-carbamoylphenoxy)-3-(4-fluorophenyl)azetidine-1-sulfonyl]phenyl}propanoic acid monotrifluoroacetate]",4.8
22,"[2H]c1c([2H])c([2H])c(OC2(c3ccccc3)CN(S(=O)(=O)c3cccc(C[C@H](N)C(=O)O)c3)C2)c([2H])c1[2H] [Example 24, (2S)-2-Amino-3-(3-{3-phenyl-3-[(^2H5)phenyloxy]azetidin-1-sulfonyl}phenyl)propanoic acid]",12
23,"C[C@H](OC(=O)[C@@H](N)Cc1cccc(S(=O)(=O)N2CC(Oc3cccc(F)c3)(c3ccccc3)C2)c1)C(=O)N(C)C [Example 31, (2S)-1-(Dimethylamino)-1-oxopropan-2-yl (2S)-2-amino-3-{3-[3-(3-fluorophenoxy)-3-phenylazetidin-1-sulfonyl]phenyl}propanoate monotrifluoroacetate]",21
24,"C[C@@H](OC(=O)[C@@H](N)Cc1cccc(S(=O)(=O)N2CC(Oc3cccc(F)c3)(c3ccccc3)C2)c1)C(=O)N(C)C [Example 32, (2R)-1-(Dimethylamino)-1-oxopropan-2-yl (2S)-2-amino-3-{3-[3-(3-fluorophenoxy)-3-phenylazetidin-1-sulfonyl]phenyl}propanoate monotrifluoroacetate]",18
25,"N#Cc1ccc(OC2(c3ccc(F)cc3)CN(S(=O)(=O)c3cccc(C[C@H](N)C(=O)O)c3)C2)cc1 [Example 34, (2S)-2-Amino-3-{3-[3-(4-cyanophenoxy)-3-(4-fluorophenyl)azetidine-1-sulfonyl]phenyl}propanoic acid monohydrochloride]",3.3
26,"N[C@@H](Cc1cccc(S(=O)(=O)N2CC(Oc3ccc(Cl)cc3)(c3ccc(F)cc3)C2)c1)C(=O)O [Example 35, (2S)-2-Amino-3-{3-[3-(4-chlorophenoxy)-3-(4-fluorophenyl)azetidine-1-sulfonyl]phenyl}propanoic acid monohydrochloride]",24
27,"N[C@@H](Cc1cccc(S(=O)(=O)N2CC(Oc3ccc(Cl)cc3)(c3ccc(F)c(F)c3)C2)c1)C(=O)O [Example 36, (2S)-2-Amino-3-{3-[3-(4-chlorophenoxy)-3-(3,4-difluorophenyl)azetidin-1-sulfonyl]phenyl}propanoic acid monohydrochloride]",19
